Laboratory results as given in ChEMBL document CHEMBL1201862, “PubChem BioAssay data set” (2004).
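Grown in 96-well plates, cells were treated for 48 hours with each compound at five concentrations. Insufficient inhibition: endpoint recorded as highest concentration tested. GI50 = concentration required for 50% inhibition of growth.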 The source made the active and inactive calls. No stated cut-off is given here; in the data, active = GI50 up to about 1.1 µM and inactive = higher.

What was measured:
Test in all cases: growth of human tumour cells (NCI), 48 h
SN12C = system: SN12C
NCI-H460 = system: NCI-H460
OVCAR-8 = system: OVCAR-8
NCI-H23 = system: NCI-H23
SF-295 = system: SF-295
OVCAR-5 = system: OVCAR-5
OVCAR-4 = system: OVCAR-4
ACHN = system: ACHN
UACC-62 = system: UACC-62
UO-31 = system: UO-31
SK-MEL-5 = system: SK-MEL-5
A549 = system: A549
PC-3 = system: PC-3
BT-549 = system: BT-549
SNB-75 = system: SNB-75
UACC-257 = system: UACC-257
MOLT-4 = system: MOLT-4
SK-OV-3 = system: SK-OV-3
NCI-H226 = system: NCI-H226
SK-MEL-2 = system: SK-MEL-2

Measured: GI50

CN(C(=O)Cc1ccccc1)n1cnn(CC(=O)OC(C)(C)C)c1=S
inactive: SN12C > 10 µM | NCI-H460 > 10 µM | OVCAR-8 > 10 µM | NCI-H23 > 10 µM | SF-295 > 10 µM | OVCAR-5 > 10 µM | OVCAR-4 > 10 µM | ACHN > 10 µM | UACC-62 > 10 µM | UO-31 > 10 µM | SK-MEL-5 > 10 µM | A549 > 10 µM | PC-3 > 10 µM | BT-549 > 10 µM | SNB-75 > 10 µM | UACC-257 > 10 µM | MOLT-4 > 10 µM | SK-OV-3 > 10 µM

CN(NC(=O)/C(=C/c1ccc(O)cc1)NC(=O)c1ccccc1)c1ccnc2cc(Cl)ccc12
inactive: SN12C 24.9 µM | NCI-H460 15.6 µM | OVCAR-8 17.8 µM | NCI-H23 > 10 µM | SF-295 16.4 µM | OVCAR-5 22.5 µM | OVCAR-4 17 µM | ACHN 18.3 µM | NCI-H226 12.7 µM | SK-MEL-2 22.3 µM | UACC-62 17.1 µM | UO-31 5.85 µM | SK-MEL-5 21 µM | A549 19.6 µM | PC-3 16.6 µM | SNB-75 8.85 µM | UACC-257 17.8 µM | MOLT-4 16.7 µM | SK-OV-3 19 µM

O=C(CN1CCOCC1)c1ccc2[nH]c(=O)oc2c1
inactive: SN12C > 100 µM | NCI-H460 > 100 µM | OVCAR-8 > 100 µM | NCI-H23 > 100 µM | SF-295 > 100 µM | OVCAR-5 > 100 µM | ACHN > 100 µM | NCI-H226 > 100 µM | SK-MEL-2 > 100 µM | UACC-62 > 100 µM | UO-31 41.9 µM | SK-MEL-5 > 100 µM | PC-3 > 100 µM | BT-549 > 100 µM | SNB-75 77.4 µM | UACC-257 > 100 µM | MOLT-4 > 100 µM | SK-OV-3 > 100 µM

O=C(c1ccccc1)C1C(C(=O)c2ccccc2)C(c2ccccc2)N(c2ccccc2)C1c1ccccc1 (stereo unspecified)
inactive: SN12C > 100 µM | NCI-H460 > 100 µM | OVCAR-8 > 100 µM | NCI-H23 > 100 µM | SF-295 > 100 µM | OVCAR-5 > 100 µM | ACHN > 100 µM | NCI-H226 > 100 µM | SK-MEL-2 > 100 µM | UACC-62 > 100 µM | UO-31 > 100 µM | SK-MEL-5 > 100 µM | A549 > 100 µM | PC-3 > 100 µM | BT-549 > 100 µM | UACC-257 > 100 µM | MOLT-4 > 100 µM

c1ccc(C[n+]2ccc3c(c2)CCCC3)cc1
inactive: SN12C > 100 µM | NCI-H460 78.7 µM | OVCAR-8 > 100 µM | NCI-H23 39.4 µM | SF-295 77.3 µM | OVCAR-5 > 100 µM | OVCAR-4 56 µM | ACHN 64.6 µM | NCI-H226 > 100 µM | SK-MEL-2 84.3 µM | UACC-62 > 100 µM | UO-31 > 100 µM | SK-MEL-5 19.6 µM | A549 77.3 µM | PC-3 78 µM | SNB-75 54.1 µM | UACC-257 33.8 µM | MOLT-4 > 100 µM | SK-OV-3 > 100 µM

Cc1n[nH]c(=O)n1N1C(=O)CCCC1=O
inactive: SN12C > 100 µM | OVCAR-8 > 100 µM | NCI-H23 > 100 µM | SF-295 > 100 µM | OVCAR-5 > 100 µM | NCI-H226 > 100 µM | SK-MEL-2 > 100 µM | UACC-62 > 100 µM | SK-MEL-5 > 100 µM | A549 > 100 µM | PC-3 > 100 µM | BT-549 > 100 µM | SNB-75 > 100 µM | UACC-257 > 100 µM | MOLT-4 22.6 µM | SK-OV-3 > 100 µM

CCOC(CNc1nn2c(C)nnc2s1)OCC
inactive: SN12C > 100 µM | NCI-H460 > 100 µM | OVCAR-8 > 100 µM | NCI-H23 > 100 µM | SF-295 > 100 µM | OVCAR-5 > 100 µM | OVCAR-4 > 100 µM | ACHN > 100 µM | NCI-H226 > 100 µM | SK-MEL-2 > 100 µM | UACC-62 > 100 µM | SK-MEL-5 > 100 µM | A549 > 100 µM | PC-3 > 100 µM | SNB-75 > 100 µM | UACC-257 > 100 µM | MOLT-4 > 100 µM | SK-OV-3 > 100 µM

c1ccc2c(c1)CC1=C(O2)c2ccccc2OC1
inactive: SN12C 19.6 µM | OVCAR-8 35.7 µM | NCI-H23 40.9 µM | SF-295 39.1 µM | OVCAR-5 > 100 µM | OVCAR-4 21.1 µM | ACHN 34.2 µM | NCI-H226 50.2 µM | SK-MEL-2 23.5 µM | UACC-62 26.2 µM | UO-31 41.2 µM | SK-MEL-5 22.4 µM | A549 47.3 µM | PC-3 38.2 µM | BT-549 25.1 µM | UACC-257 28.2 µM | MOLT-4 23.9 µM | SK-OV-3 > 100 µM

COc1ccc(Oc2cccc(/C=C3/C(=O)Nc4ccccc43)c2)cc1
inactive: SN12C 10.9 µM | NCI-H460 11.3 µM | OVCAR-8 16.9 µM | NCI-H23 3.23 µM | SF-295 7.01 µM | OVCAR-5 17.7 µM | OVCAR-4 14 µM | ACHN 11.6 µM | SK-MEL-2 11.1 µM | UO-31 6.82 µM | SK-MEL-5 2.62 µM | A549 7.19 µM | PC-3 5.98 µM | BT-549 14.8 µM | SNB-75 15 µM | UACC-257 5.79 µM | MOLT-4 4 µM | SK-OV-3 13.8 µM

COC(=O)/C=C\[C@@H]1[C@H](C)N1S(=O)(=O)c1ccc(C)cc1 (stereo partly specified)
inactive: SN12C > 100 µM | NCI-H460 > 100 µM | OVCAR-8 > 100 µM | NCI-H23 > 100 µM | SF-295 > 100 µM | OVCAR-5 > 100 µM | OVCAR-4 > 100 µM | ACHN > 100 µM | NCI-H226 > 100 µM | SK-MEL-2 > 100 µM | UACC-62 > 100 µM | SK-MEL-5 > 100 µM | A549 > 100 µM | PC-3 > 100 µM | BT-549 > 100 µM | UACC-257 > 100 µM | MOLT-4 > 100 µM | SK-OV-3 > 100 µM

O=c1c(Cc2ccc(Cl)cc2)nnc2sc(-c3ccc([N+](=O)[O-])cc3)nn12
inactive: SN12C 33.5 µM | NCI-H460 16.1 µM | OVCAR-8 35 µM | NCI-H23 20.7 µM | SF-295 45.2 µM | OVCAR-5 17.5 µM | OVCAR-4 28.7 µM | ACHN 25.9 µM | SK-MEL-2 15.6 µM | UACC-62 14.2 µM | UO-31 21.3 µM | A549 24.3 µM | PC-3 20.7 µM | BT-549 19.8 µM | UACC-257 17.1 µM | MOLT-4 > 100 µM | SK-OV-3 38.3 µM

CNC1C(O)C(OC2C(N)CC(N)C(OC3OC(CN)=CCC3N)C2O)OCC1(C)O (stereo unspecified)
inactive: SN12C > 100 µM | NCI-H460 > 100 µM | OVCAR-8 > 100 µM | NCI-H23 > 100 µM | SF-295 > 100 µM | OVCAR-5 > 100 µM | ACHN > 100 µM | NCI-H226 > 100 µM | SK-MEL-2 > 100 µM | UACC-62 > 100 µM | UO-31 > 100 µM | SK-MEL-5 > 100 µM | A549 > 100 µM | PC-3 > 100 µM | BT-549 > 100 µM | SNB-75 > 100 µM | UACC-257 > 100 µM | MOLT-4 > 100 µM | SK-OV-3 > 100 µM

C=C1CC(c2ccc(OCCCN3C(=O)c4ccccc4C3=O)cc2)OC1=O (stereo unspecified)
inactive: SN12C 3.31 µM | NCI-H460 2.07 µM | OVCAR-8 2.71 µM | NCI-H23 2.35 µM | SF-295 10.5 µM | OVCAR-5 11.4 µM | OVCAR-4 2.45 µM | ACHN 4.19 µM | NCI-H226 1.46 µM | SK-MEL-2 1.96 µM | UACC-62 1.97 µM | UO-31 3.74 µM | SK-MEL-5 6.64 µM | A549 16 µM | PC-3 2.92 µM | SNB-75 10.6 µM | UACC-257 2.19 µM | MOLT-4 1.52 µM | SK-OV-3 14.4 µM

Oc1ccc2ccccc2c1/C=N/Cc1c(O)ccc2ccccc12
inactive: SN12C 32.8 µM | NCI-H460 28.1 µM | OVCAR-8 34.5 µM | NCI-H23 42.7 µM | SF-295 39.5 µM | OVCAR-5 > 100 µM | OVCAR-4 > 100 µM | ACHN 28.4 µM | SK-MEL-2 71.8 µM | UACC-62 45.1 µM | UO-31 28.7 µM | SK-MEL-5 71.9 µM | A549 86.7 µM | PC-3 38.7 µM | BT-549 45.3 µM | SNB-75 37.9 µM | UACC-257 81.5 µM | MOLT-4 13.2 µM | SK-OV-3 > 100 µM

COc1ccc2c(c1)OCC1Cc3ccccc3OC21 (stereo unspecified)
inactive: SN12C > 100 µM | OVCAR-8 > 100 µM | NCI-H23 > 100 µM | SF-295 > 100 µM | OVCAR-5 > 100 µM | ACHN > 100 µM | NCI-H226 > 100 µM | SK-MEL-2 > 100 µM | UACC-62 > 100 µM | UO-31 > 100 µM | SK-MEL-5 > 10 µM | A549 > 100 µM | PC-3 98.4 µM | BT-549 > 100 µM | SNB-75 > 100 µM | UACC-257 52 µM | MOLT-4 54.1 µM | SK-OV-3 > 100 µM
